Data: the kinase profiling compilation of Christmann-Franck et al. (2016)

Key:
Assay in all cases: radiometric filter-binding kinase assay, Kinase HotSpot
Details in all cases: compound 0.5 µM; ATP 10 µM
[1] = molecular target: HIPK3 (human) (UniProt Q9H422)
[2] = molecular target: GRK5 (human) (UniProt P34947)
[3] = molecular target: CDK5 CDK5R1 p35 (human) (UniProt Q00535+Q15078)
[4] = molecular target: ABL1 (human) (UniProt P00519)
[5] = molecular target: SLK (human) (UniProt Q9H2G2)
[6] = molecular target: FLT1 (human) (UniProt P17948)
[7] = molecular target: PRKD1 (human) (UniProt Q15139)
[8] = molecular target: DYRK1A (human) (UniProt Q13627)
[9] = molecular target: PRKX (human) (UniProt P51817)
[10] = molecular target: MAPK8 (human) (UniProt P45983)
[11] = molecular target: PAK7 (human) (UniProt Q9P286)
[12] = molecular target: CDK4 CCND3 (human) (UniProt P30281+P11802)
[13] = molecular target: CLK2 (human) (UniProt P49760)
[14] = molecular target: RPS6KB1 (human) (UniProt P23443)
[15] = molecular target: AKT3 (human) (UniProt Q9Y243)
[16] = molecular target: STK17A (human) (UniProt Q9UEE5)
[17] = molecular target: MAP3K14 (human) (UniProt Q99558)
[18] = molecular target: CSNK1A1 (human) (UniProt P48729)
Chain of CSNK1A1 (human) (P48729 whole entry, looked up): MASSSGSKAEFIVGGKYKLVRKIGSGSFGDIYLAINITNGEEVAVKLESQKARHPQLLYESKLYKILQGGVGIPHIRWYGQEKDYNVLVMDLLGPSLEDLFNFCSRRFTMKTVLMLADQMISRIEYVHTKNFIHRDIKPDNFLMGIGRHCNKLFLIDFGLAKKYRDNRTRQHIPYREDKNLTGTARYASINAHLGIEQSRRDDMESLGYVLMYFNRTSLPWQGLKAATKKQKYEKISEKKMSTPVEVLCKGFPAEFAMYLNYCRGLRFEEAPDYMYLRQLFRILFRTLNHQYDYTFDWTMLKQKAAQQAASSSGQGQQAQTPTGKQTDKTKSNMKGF

[19] = molecular target: CSNK2A1 (human) (UniProt P68400)
[20] = molecular target: DSTYK (human) (UniProt Q6XUX3)
[21] = molecular target: IKBKB (human) (UniProt O14920)
Chain of IKBKB (human) (O14920 whole entry, looked up): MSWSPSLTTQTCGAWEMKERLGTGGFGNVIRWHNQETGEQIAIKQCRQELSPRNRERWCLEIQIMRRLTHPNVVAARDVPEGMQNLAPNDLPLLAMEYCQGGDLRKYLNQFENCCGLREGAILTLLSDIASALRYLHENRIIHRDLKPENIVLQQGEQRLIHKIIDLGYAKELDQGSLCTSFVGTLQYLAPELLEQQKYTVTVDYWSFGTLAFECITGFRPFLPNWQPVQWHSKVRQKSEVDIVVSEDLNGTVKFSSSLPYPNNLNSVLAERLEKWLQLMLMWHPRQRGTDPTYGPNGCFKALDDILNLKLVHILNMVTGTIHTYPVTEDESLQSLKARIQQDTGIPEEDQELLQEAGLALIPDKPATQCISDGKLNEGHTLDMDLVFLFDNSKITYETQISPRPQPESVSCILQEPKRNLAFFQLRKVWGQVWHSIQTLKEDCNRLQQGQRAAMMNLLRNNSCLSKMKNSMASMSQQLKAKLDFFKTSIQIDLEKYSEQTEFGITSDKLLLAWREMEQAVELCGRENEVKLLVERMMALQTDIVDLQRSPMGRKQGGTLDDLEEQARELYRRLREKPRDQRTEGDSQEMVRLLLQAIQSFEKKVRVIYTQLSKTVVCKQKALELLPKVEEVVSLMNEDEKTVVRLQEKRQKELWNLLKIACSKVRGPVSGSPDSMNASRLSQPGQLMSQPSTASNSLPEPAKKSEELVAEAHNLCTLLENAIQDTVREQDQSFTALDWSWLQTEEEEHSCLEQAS

[22] = molecular target: SGK2 (human) (UniProt Q9HBY8)
Chain of SGK2 (human) (Q9HBY8 whole entry, looked up): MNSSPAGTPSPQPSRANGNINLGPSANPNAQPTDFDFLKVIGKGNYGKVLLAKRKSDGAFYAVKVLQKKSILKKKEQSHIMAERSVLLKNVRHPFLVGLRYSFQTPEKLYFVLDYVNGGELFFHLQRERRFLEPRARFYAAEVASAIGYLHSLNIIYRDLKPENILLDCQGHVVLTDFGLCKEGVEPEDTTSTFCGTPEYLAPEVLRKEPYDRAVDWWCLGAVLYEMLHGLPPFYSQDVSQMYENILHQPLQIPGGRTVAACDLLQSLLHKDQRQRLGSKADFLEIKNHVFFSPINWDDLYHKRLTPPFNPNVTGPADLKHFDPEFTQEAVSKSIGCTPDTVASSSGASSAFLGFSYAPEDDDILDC

[23] = molecular target: CDK9 CCNK (human) (UniProt O75909+P50750)
Chain of CDK9 CCNK (human) (O75909 whole entry, looked up): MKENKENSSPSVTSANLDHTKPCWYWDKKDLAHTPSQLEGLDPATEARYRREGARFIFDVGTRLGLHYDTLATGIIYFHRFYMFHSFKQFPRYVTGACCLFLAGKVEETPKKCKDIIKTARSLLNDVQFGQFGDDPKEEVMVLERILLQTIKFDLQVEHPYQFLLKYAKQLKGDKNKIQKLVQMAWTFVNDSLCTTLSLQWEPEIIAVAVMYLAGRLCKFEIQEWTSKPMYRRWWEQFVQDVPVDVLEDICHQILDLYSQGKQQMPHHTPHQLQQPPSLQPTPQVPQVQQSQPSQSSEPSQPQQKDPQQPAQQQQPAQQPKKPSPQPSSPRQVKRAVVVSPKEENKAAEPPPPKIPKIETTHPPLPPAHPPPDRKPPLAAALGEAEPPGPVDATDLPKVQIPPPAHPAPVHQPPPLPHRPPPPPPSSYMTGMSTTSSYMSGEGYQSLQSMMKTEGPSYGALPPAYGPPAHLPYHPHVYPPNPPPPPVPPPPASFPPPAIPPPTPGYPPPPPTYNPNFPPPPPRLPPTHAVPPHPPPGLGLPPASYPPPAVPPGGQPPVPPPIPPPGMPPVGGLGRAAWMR
Chain of CDK9 CCNK (human) (P50750 whole entry, looked up): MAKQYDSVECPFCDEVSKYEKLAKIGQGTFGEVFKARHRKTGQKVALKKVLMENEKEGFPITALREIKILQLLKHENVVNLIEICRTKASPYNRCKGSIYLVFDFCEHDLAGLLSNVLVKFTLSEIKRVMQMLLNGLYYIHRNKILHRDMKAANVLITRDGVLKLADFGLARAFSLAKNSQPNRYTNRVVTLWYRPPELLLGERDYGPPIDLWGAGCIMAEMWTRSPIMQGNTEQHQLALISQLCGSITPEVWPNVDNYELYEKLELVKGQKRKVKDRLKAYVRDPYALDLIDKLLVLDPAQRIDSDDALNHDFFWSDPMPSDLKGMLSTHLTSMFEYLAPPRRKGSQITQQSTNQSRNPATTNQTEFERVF

[24] = molecular target: PRKD3 (human) (UniProt O94806)
[25] = molecular target: STK33 (human) (UniProt Q9BYT3)
[26] = molecular target: PRKCE (human) (UniProt Q02156)
[27] = molecular target: JAK2 JH1 JH2 (human) (UniProt O60674)
[28] = molecular target: FER (human) (UniProt P16591)
[29] = molecular target: PKN1 (human) (UniProt Q16512)
[30] = molecular target: IKBKE (human) (UniProt Q14164)
Chain of IKBKE (human) (Q14164 whole entry, looked up): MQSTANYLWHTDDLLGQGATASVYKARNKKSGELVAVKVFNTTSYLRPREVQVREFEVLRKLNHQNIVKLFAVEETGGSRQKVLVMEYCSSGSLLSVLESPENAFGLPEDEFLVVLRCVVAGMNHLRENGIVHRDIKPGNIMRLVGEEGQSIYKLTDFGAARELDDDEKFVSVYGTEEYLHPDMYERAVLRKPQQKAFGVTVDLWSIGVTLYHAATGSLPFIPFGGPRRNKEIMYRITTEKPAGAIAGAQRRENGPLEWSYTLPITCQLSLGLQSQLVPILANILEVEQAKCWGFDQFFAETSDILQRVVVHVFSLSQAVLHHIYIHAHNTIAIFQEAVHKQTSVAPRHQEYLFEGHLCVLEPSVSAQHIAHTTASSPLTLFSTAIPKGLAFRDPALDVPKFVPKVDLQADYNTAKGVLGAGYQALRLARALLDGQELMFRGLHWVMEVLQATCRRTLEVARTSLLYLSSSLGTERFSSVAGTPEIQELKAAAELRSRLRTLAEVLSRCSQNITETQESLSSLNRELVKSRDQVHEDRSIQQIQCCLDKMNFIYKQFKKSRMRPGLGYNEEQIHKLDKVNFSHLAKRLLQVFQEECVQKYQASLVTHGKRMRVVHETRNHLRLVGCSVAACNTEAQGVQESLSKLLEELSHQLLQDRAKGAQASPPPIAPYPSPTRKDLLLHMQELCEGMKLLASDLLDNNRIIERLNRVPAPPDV

[31] = molecular target: STK11 (human) (UniProt Q15831)
[32] = molecular target: PAK4 (human) (UniProt O96013)
Chain of PAK4 (human) (O96013 whole entry, looked up): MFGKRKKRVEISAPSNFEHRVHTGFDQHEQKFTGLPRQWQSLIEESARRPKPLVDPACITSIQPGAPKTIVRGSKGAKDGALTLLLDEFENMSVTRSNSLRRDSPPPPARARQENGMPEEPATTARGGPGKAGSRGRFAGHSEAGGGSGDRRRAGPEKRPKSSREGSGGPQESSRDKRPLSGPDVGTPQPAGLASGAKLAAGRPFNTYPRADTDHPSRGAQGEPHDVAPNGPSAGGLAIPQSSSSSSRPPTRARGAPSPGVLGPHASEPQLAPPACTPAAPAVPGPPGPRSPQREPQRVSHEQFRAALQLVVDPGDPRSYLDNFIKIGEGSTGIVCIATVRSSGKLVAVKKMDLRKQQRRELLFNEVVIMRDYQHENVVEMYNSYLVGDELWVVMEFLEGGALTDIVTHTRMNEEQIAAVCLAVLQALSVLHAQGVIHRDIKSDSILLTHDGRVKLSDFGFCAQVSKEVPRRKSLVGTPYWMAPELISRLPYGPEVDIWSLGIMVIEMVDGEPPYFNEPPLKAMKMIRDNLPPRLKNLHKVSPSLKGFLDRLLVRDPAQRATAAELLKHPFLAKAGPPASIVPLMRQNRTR

[33] = molecular target: CSNK1E (human) (UniProt P49674)
[34] = molecular target: DCLK2 (human) (UniProt Q8N568)
[35] = molecular target: DAPK3 (human) (UniProt O43293)
[36] = molecular target: PHKG1 (human) (UniProt Q16816)
[37] = molecular target: ACVR1B (human) (UniProt P36896)
[38] = molecular target: PKN2 (human) (UniProt Q16513)
[39] = molecular target: MET (human) (UniProt P08581)
[40] = molecular target: ULK2 (human) (UniProt Q8IYT8)
[41] = molecular target: PRKCD (human) (UniProt Q05655)
[42] = molecular target: CAMK2D (human) (UniProt Q13557)

Chain of ABL1 (human) (P00519 whole entry, looked up): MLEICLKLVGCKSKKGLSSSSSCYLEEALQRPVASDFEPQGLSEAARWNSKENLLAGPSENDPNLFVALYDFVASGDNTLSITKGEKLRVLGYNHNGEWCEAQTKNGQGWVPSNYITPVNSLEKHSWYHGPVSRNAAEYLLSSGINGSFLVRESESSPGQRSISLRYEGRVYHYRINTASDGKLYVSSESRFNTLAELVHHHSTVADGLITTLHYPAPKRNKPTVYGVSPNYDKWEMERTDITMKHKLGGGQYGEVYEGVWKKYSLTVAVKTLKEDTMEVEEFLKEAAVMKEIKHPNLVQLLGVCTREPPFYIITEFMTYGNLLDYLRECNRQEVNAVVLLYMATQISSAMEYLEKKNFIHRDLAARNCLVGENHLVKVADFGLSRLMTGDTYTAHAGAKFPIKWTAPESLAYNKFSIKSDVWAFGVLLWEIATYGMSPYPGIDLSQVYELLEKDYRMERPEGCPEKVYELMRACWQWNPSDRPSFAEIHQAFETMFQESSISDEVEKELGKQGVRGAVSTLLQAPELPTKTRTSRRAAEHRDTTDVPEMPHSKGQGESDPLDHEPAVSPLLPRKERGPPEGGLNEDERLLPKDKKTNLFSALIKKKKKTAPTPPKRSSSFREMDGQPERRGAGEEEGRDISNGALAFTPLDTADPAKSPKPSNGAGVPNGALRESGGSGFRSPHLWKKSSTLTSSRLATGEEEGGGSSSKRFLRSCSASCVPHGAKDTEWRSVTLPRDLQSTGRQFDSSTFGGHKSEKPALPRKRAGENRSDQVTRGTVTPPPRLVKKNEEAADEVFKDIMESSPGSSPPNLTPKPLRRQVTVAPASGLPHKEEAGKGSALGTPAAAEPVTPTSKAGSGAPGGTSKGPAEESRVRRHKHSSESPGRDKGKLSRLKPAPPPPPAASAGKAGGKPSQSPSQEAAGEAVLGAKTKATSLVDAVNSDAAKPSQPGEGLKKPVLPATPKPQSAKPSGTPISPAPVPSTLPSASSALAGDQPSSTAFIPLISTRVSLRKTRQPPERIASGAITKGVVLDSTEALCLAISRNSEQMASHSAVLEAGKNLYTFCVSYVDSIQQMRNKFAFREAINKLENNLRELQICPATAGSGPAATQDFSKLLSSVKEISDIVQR

Compound `c1ccc2c(-c3ccncc3)c[nH]c2c1` has a residual activity [1] of 107%, a residual activity [2] of 99.2% and a residual activity [3] of 96%. For the same compound, the residual activity [4] was 98.8%, the residual activity [5] was 103% and the residual activity [6] was 97.9%. The residual activity [7] was 95.5%, the residual activity [8] was 77.6% and the residual activity [9] was 54.3%. The residual activity [10] was 100%, the residual activity [11] was 93.8% and the residual activity [12] was 102%. It also gave a residual activity [13] of 101%, a residual activity [14] of 79.9% and a residual activity [15] of 101%. The residual activity [16] was 93%, the residual activity [17] was 112% and the residual activity [18] was 100%. For the same compound, the residual activity [19] was 95%, the residual activity [20] was 95.9% and the residual activity [21] was 102%. It also gave a residual activity [22] of 91%, a residual activity [23] of 91.2% and a residual activity [24] of 90.7%. The residual activity [25] was 97.3%, the residual activity [26] was 81.5% and the residual activity [27] was 93.8%. For the same compound, the residual activity [28] was 91.6%, the residual activity [29] was 66.4% and the residual activity [30] was 96.4%. It also gave a residual activity [31] of 90.7%, a residual activity [32] of 96.7% and a residual activity [33] of 100%. It also gave a residual activity [34] of 98.1%, a residual activity [35] of 101% and a residual activity [36] of 90.3%. For the same compound, the residual activity [37] was 98.8%, the residual activity [38] was 80.8% and the residual activity [39] was 91.4%. The residual activity [40] was 106%, the residual activity [41] was 83.2% and the residual activity [42] was 103%.

Compound `CN(C)c1ccc(/C=C2\C(=O)Nc3ccccc32)cc1` has a residual activity [1] of 94.4%, a residual activity [2] of 104% and a residual activity [3] of 104%. For the same compound, the residual activity [4] was 103%, the residual activity [5] was 103% and the residual activity [6] was 92%. It also gave a residual activity [7] of 100%, a residual activity [8] of 103% and a residual activity [9] of 104%. It also gave a residual activity [10] of 103%, a residual activity [11] of 101% and a residual activity [12] of 98.9%. For the same compound, the residual activity [13] was 99.7%, the residual activity [14] was 97.1% and the residual activity [15] was 103%. It also gave a residual activity [16] of 93.8%, a residual activity [17] of 67.7% and a residual activity [18] of 105%. For the same compound, the residual activity [19] was 89.7%, the residual activity [20] was 103% and the residual activity [21] was 105%. The residual activity [22] was 98.6%, the residual activity [23] was 100% and the residual activity [24] was 99.2%. For the same compound, the residual activity [25] was 99.8%, the residual activity [26] was 92.6% and the residual activity [27] was 94.8%. It also gave a residual activity [28] of 94.5%, a residual activity [29] of 98.4% and a residual activity [30] of 98.2%. The residual activity [31] was 99.4%, the residual activity [32] was 101% and the residual activity [33] was 57.2%. It also gave a residual activity [34] of 100%, a residual activity [35] of 101% and a residual activity [36] of 99.1%. The residual activity [37] was 93.4%, the residual activity [38] was 98.9% and the residual activity [39] was 101%. It also gave a residual activity [40] of 97.1%, a residual activity [41] of 95.6% and a residual activity [42] of 96.4%.
